Laboratory results: paper PMC4774911, “Biochemical Screening of Five Protein Kinases from Plasmodium falciparum against 14,000 Cell-Active Compounds” (PLoS ONE, 2016)
Several values for one entry are separate records, joined by “and”; a condition that tells them apart may be missing. Equal entries are not always repeated.

Columns and labels:
Assay in all cases: biochemical
Set-up in all cases: endogenous in cells; host or cells: K562 cell extract; species or system K562 (extract); replicate k of n = 2 (each experiment ID is one independent experiment; two experiment IDs per compound)
Conditions in all cases: read-out: KDapp
TAOK2 = molecular target: T1, TAOK2 (Homo sapiens, UniProt Q9UL54)
T1 sequence (Q9UL54 1-1235): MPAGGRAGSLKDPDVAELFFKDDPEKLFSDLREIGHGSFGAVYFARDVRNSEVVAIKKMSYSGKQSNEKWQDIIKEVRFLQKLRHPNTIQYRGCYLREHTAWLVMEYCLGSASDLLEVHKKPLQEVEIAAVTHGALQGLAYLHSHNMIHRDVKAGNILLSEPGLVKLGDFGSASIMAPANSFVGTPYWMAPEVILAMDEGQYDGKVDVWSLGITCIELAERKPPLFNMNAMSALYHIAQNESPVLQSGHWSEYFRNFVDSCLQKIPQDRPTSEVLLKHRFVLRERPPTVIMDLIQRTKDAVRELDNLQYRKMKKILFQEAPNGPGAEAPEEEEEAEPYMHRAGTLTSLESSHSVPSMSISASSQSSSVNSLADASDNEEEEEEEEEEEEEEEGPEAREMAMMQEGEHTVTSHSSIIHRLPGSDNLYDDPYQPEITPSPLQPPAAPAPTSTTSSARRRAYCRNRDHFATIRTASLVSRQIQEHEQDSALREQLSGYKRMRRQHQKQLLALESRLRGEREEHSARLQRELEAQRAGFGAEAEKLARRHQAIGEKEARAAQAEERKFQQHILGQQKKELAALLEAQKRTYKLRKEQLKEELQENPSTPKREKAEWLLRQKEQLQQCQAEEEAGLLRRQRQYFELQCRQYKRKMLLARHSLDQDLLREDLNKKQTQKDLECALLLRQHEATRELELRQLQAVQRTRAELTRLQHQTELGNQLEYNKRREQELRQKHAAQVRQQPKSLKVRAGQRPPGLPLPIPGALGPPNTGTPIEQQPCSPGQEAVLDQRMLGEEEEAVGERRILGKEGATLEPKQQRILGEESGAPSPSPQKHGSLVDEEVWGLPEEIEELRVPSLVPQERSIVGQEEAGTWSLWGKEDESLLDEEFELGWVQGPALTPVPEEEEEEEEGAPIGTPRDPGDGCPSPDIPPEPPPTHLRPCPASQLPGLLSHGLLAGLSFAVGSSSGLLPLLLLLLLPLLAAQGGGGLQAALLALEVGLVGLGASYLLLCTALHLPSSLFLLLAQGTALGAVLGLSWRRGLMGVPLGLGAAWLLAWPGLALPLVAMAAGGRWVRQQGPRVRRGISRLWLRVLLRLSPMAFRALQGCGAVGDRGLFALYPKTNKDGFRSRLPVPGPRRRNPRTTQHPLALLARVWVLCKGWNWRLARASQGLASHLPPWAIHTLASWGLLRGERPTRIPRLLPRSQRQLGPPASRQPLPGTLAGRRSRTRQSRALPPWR

TTK = molecular target: T2, TTK (Homo sapiens, UniProt P33981)
T2 sequence (P33981 1-857): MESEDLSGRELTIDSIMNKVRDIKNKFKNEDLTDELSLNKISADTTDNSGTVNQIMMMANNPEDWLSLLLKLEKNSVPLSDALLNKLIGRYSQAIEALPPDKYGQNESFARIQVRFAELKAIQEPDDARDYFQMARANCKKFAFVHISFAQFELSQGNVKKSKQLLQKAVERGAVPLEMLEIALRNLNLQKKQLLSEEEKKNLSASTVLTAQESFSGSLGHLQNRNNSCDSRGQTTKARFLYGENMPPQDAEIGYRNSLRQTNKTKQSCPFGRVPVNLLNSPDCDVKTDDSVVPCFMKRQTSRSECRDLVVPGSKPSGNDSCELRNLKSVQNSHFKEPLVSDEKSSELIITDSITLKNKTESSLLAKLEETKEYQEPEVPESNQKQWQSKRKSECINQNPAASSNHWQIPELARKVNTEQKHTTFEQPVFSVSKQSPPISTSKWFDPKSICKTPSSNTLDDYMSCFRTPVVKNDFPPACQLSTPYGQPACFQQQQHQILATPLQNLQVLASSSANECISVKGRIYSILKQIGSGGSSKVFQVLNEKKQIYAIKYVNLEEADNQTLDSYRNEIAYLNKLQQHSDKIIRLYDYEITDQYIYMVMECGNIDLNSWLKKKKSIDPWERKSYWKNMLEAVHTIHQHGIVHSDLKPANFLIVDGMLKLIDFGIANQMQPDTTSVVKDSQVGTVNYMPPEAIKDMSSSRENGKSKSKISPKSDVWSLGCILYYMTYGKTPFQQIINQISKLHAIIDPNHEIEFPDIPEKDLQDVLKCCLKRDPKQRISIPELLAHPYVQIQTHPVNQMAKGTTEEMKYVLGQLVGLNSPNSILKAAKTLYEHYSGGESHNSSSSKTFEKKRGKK

PIK3R4 = PIK3R4 (Homo sapiens, UniProt Q99570)
PKMYT1 = molecular target: T3, PKMYT1 (Homo sapiens, UniProt Q99640)
T3 sequence (Q99640 1-499): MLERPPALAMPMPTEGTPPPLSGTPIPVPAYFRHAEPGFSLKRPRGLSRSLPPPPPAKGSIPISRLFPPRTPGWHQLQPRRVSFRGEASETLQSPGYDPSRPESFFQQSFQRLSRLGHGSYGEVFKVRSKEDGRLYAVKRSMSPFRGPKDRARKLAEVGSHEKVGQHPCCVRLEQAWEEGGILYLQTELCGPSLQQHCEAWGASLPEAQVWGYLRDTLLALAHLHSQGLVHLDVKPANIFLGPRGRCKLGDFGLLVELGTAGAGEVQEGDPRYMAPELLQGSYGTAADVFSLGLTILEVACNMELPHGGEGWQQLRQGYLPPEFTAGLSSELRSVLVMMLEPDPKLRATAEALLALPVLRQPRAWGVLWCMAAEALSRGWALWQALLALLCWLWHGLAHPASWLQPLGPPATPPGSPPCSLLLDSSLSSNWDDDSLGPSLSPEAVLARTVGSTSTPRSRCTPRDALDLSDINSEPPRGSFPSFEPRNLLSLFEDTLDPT

Sequence of PIK3R4 (Q99570 whole entry): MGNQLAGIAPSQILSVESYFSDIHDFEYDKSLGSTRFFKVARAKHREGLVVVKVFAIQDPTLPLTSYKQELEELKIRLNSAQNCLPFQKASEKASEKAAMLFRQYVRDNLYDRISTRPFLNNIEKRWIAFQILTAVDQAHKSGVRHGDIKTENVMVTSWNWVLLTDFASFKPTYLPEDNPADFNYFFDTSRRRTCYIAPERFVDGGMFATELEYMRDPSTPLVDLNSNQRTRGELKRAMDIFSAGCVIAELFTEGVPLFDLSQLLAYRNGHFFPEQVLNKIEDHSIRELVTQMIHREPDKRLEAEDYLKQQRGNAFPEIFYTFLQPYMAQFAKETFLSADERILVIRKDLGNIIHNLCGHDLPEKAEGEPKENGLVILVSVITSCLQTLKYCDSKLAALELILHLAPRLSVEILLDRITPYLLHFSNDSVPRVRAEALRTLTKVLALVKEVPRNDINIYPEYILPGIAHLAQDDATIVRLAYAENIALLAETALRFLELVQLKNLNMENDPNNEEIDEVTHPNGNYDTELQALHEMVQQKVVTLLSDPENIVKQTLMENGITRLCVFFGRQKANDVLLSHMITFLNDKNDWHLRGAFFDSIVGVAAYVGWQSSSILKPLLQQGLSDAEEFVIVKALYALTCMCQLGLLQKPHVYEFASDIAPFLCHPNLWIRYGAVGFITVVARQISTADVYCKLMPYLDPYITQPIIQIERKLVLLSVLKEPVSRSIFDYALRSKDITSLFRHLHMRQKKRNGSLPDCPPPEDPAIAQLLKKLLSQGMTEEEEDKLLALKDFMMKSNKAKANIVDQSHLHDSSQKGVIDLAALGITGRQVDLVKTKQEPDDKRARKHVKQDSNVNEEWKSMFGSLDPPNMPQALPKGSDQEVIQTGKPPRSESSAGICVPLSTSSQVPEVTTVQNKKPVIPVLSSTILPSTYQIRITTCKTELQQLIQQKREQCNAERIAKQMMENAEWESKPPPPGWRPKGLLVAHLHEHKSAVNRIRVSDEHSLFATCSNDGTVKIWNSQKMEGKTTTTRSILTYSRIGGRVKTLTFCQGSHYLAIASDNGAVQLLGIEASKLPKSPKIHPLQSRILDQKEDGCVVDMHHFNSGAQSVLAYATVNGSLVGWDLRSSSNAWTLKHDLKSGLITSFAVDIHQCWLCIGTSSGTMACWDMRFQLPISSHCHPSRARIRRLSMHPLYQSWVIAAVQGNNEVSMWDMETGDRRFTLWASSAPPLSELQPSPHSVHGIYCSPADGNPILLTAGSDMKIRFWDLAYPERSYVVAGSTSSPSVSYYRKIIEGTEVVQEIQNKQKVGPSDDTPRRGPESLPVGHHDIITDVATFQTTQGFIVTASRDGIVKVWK

CN1CCN(c2ccc(Nc3ncc(C#N)c(Nc4ccccc4C(N)=O)n3)cc2)CC1.Cl [TCMDC-134116]
Kd (TAOK2): 274 nM | Kd (TTK): 439 nM and 357 nM | Kd (PIK3R4): 1840 nM | Kd (PKMYT1): 888 nM and 596 nM
